# Experimental data reported in ChEMBL document CHEMBL5154794, “Design, synthesis and biological evaluation of protease inhibitors containing morpholine cores with remarkable potency against both HIV-1 subtypes B and C” (Eur J Med Chem, 2022).
# Experiments:
# [1] = molecular target: Human immunodeficiency virus type 1 protease (Human immunodeficiency virus 1, UniProt Q72874); experiment: Inhibition of HIV-1 protease using Arg-Glu (EDANS)-Ser-Gln-Asn-Tyr-Pro-lle-Val-Gln-Lys (DABCYL)-Arg as substrate preincubated for 20 to 30 mins followed by substrate addition and measured by FRET assay
# HIV-1 protease = experiment: Selectivity index, ratio IC50 for cytotoxicity against human HEK-293T cells over IC50 for inhibition of HIV-1 protease; assay type: toxicity, cell-based; conditions: read-out: Ratio CC50/IC50
# [2] = Cytotoxicity against human HEK-293T cells after 24 hrs by CCK-8 assay; assay type: toxicity, cell-based
# [3] = tested on: Human immunodeficiency virus 1; experiment: Antiviral activity against HIV1 NL4-3 Env-deficient VSV-G pseudotyped virus infected in human SUP-T1 cells assessed as inhibition of late stage viral production at 10 uM measured after 48 hrs by luciferase assay relative to control; assay type: functional; conditions: Human immunodeficiency virus 1, NL4-3, SUP-T1
# [4] = tested on: Human immunodeficiency virus 1; experiment: Antiviral activity against wild type HIV1 NL4-3; assay type: functional, organism-based; conditions: Human immunodeficiency virus 1, NL4-3
# [5] = tested on: Human immunodeficiency virus 1; experiment: Antiviral activity against DRV resistant HIV1; assay type: functional, organism-based
# [6] = Selectivity index, ratio EC50 for Antiviral activity against DRV resistant HIV1 over EC50 for wild type HIV1 NL4-3
# [7] = tested on: Human immunodeficiency virus 1; experiment: Antiviral activity against HIV1 subtype C isolate ZM246; assay type: functional, organism-based; conditions: Human immunodeficiency virus 1, subtype C isolate ZM246
# [8] = tested on: Human immunodeficiency virus 1; experiment: Antiviral activity against HIV1 NL4-3 Env-deficient VSV-G pseudotyped virus infected in human SUP-T1 cells assessed as inhibition of late stage viral production at 100 nM measured after 48 hrs by luciferase assay relative to control; assay type: functional; conditions: Human immunodeficiency virus 1, NL4-3, SUP-T1
# [9] = tested on: Human immunodeficiency virus 1; experiment: Antiviral activity against HIV1 subtype C isolate Indie; assay type: functional, organism-based; conditions: Human immunodeficiency virus 1, subtype C isolate Indie
SMILES,IC50 [1],selectivity ratio (HIV-1 protease),CC50 at 24 h [2],inhibition at 10 µM [3],EC50 [4],EC50 [5],Ratio EC50 [6],EC50 [7],inhibition at 0.1 µM [8],EC50 [9]
CC(C)CN(C[C@@H](O)[C@H](Cc1ccccc1)NS(=O)(=O)N1CCOCC1)S(=O)(=O)c1ccc(N)cc1,35.2 nM,2860,101000 nM,,,,,,,
COc1ccc(S(=O)(=O)N(CC(C)C)C[C@@H](O)[C@H](Cc2ccccc2)NS(=O)(=O)N2CCOCC2)cc1,19.2 nM,3140,60300 nM,,,,,,,
CC(C)CN(C[C@@H](O)[C@H](Cc1ccccc1)NC(=O)[C@@H]1COCCN1)S(=O)(=O)c1ccc(N)cc1,31.3 nM,> 6390,> 200000 nM,,,,,,,
CC(C)CN(C[C@@H](O)[C@H](Cc1ccccc1)NC(=O)CN1CCS(=O)(=O)CC1)S(=O)(=O)c1ccc(NO)cc1,47.4 nM,> 4220,> 200000 nM,,,,,,,
COc1ccc(S(=O)(=O)N(CC(C)C)C[C@@H](O)[C@H](Cc2ccccc2)NC(=O)OC[C@H]2CNCCO2)cc1,0.67 nM,> 299000,> 200000 nM,100%,,,,,,
CC(C)CN(C[C@@H](O)[C@H](Cc1ccccc1)NC(=O)[C@H]1CNCCO1)S(=O)(=O)c1ccc(N)cc1,54.3 nM,> 3680,> 200000 nM,,,,,,,
CC(C)CN(C[C@@H](O)[C@H](Cc1ccccc1)NC(=O)OC[C@H]1CNCCO1)S(=O)(=O)c1ccc(N)cc1,19.7 nM,> 10100,200000 nM,,,,,,,
CC(C)CN(C[C@@H](O)[C@H](Cc1ccccc1)NC(=O)OC[C@H]1CN(C)CCO1)S(=O)(=O)c1ccc(NO)cc1,13.9 nM,> 14400,> 200000 nM,,,,,,,
COc1ccc(S(=O)(=O)N(CC(C)C)C[C@@H](O)[C@H](Cc2ccccc2)NC(=O)[C@H]2CNCCO2)cc1,11.7 nM,> 17200,> 200000 nM,,,,,,,
COc1ccc(S(=O)(=O)N(CC(C)C)C[C@@H](O)[C@H](Cc2ccccc2)NC(=O)CN2CCS(=O)(=O)CC2)cc1,24.3 nM,> 8230,> 200000 nM,,,,,,,
COc1ccc(S(=O)(=O)N(CC(C)C)C[C@@H](O)[C@H](Cc2ccccc2)NC(=O)OC[C@H]2CN(C)CCO2)cc1,2.25 nM,> 88900,> 200000 nM,100%,,,,,,
CNc1ccc(S(=O)(=O)N(CC(C)C)C[C@@H](O)[C@H](Cc2ccccc2)NC(=O)[C@H]2CNCCO2)cc1,90.2 nM,> 2220,> 200000 nM,,,,,,,
CC(C)CN(C[C@@H](O)[C@H](Cc1ccccc1)NC(=O)[C@H]1CNCCO1)S(=O)(=O)c1ccc(O)cc1,5.65 nM,> 35400,> 200000 nM,,,,,,,
COc1ccc(S(=O)(=O)N(CC(C)C)C[C@@H](O)[C@H](Cc2ccccc2)NC(=O)[C@@H]2COCCN2)cc1,0.39 nM,> 513000,> 200000 nM,100%,340 nM,3190 nM,9,,,
CC(C)CN(C[C@@H](O)[C@H](Cc1ccccc1)NC(=O)[C@@H]1COCCN1C)S(=O)(=O)c1ccc(NO)cc1,26.7 nM,3550,94600 nM,78%,,,,,,
CC(C)CN(C[C@@H](O)[C@H](Cc1ccccc1)NC(=O)[C@H]1CNCCO1)S(=O)(=O)c1ccc(NO)cc1,34 nM,328,11200 nM,,,,,,,
CC(C)CN(C[C@@H](O)[C@H](Cc1ccccc1)NC(=O)OC[C@H]1CNCCO1)S(=O)(=O)c1ccc(NO)cc1,2.45 nM,> 81600,> 200000 nM,,,,,,,
CC(C)CN(C[C@@H](O)[C@H](Cc1ccccc1)NC(=O)O[C@H]1CO[C@H]2OCC[C@H]21)S(=O)(=O)c1ccc(N)cc1,,,> 200000 nM,,1.9 nM,110 nM,,2.01 nM,100%,1.26 nM
CC(C)CN(C[C@@H](O)[C@H](Cc1ccccc1)NC(=O)CN1CCS(=O)(=O)CC1)S(=O)(=O)c1ccc(O)cc1,10.6 nM,> 18800,> 200000 nM,,,,,,,
CC(C)CN(C[C@@H](O)[C@H](Cc1ccccc1)NC(=O)OC[C@H]1CN(C)CCO1)S(=O)(=O)c1ccc(O)cc1,1.54 nM,> 130000,> 200000 nM,,,,,,,
CC(C)CN(C[C@@H](O)[C@H](Cc1ccccc1)NC(=O)[C@@H]1COCCN1C)S(=O)(=O)c1ccc(O)cc1,1.2 nM,113000,135000 nM,100%,170 nM,2200 nM,13,,,
COc1ccc(S(=O)(=O)N(CC(C)C)C[C@@H](O)[C@H](Cc2ccccc2)NC(=O)[C@@H]2COCCN2C)cc1,4.83 nM,27300,132000 nM,100%,350 nM,1990 nM,6,,,
CC(C)CN(C[C@@H](O)[C@H](Cc1ccccc1)NC(=O)OC[C@H]1CNCCO1)S(=O)(=O)c1ccc(O)cc1,1.9 nM,> 105000,> 200000 nM,,,,,,,
CC(C)CN(C[C@@H](O)[C@H](Cc1ccccc1)NC(=O)[C@@H]1COCCN1)S(=O)(=O)c1ccc(NO)cc1,2.99 nM,48400,145000 nM,93%,,,,,,
CC(C)CN(C[C@@H](O)[C@H](Cc1ccccc1)NC(=O)[C@@H]1COCCN1)S(=O)(=O)c1ccc(O)cc1,0.09 nM,> 2.22e+06,> 200000 nM,100%,89 nM,1290 nM,14,13.6 nM,,8.23 nM
CC(C)CN(C[C@@H](O)[C@H](Cc1ccccc1)NC(=O)[C@@H]1COCCN1)S(=O)(=O)c1ccc(S(C)(=O)=O)cc1,454 nM,> 440,> 200000 nM,,,,,,,
CNc1ccc(S(=O)(=O)N(CC(C)C)C[C@@H](O)[C@H](Cc2ccccc2)NC(=O)[C@@H]2COCCN2)cc1,95.8 nM,> 2090,> 200000 nM,,,,,,,
